In patent US8461186B2, “Use of N-piperidine derivatives for the treatment of neurodegenerative pathologies” (Medestea Research & Production S.p.A., priority 2004, dated 2013):
Like-named read-outs stand apart in the source and are kept apart here.

How the values were obtained:
[1] = test system: rats receiving Paraquat into Substantia Nigra; assay type: in vivo, rat
From the text: The Paraquat/rat/PS experimental model was therefore selected as the most indicative for checking the efficacy of chemical compounds according to the present invention; of these, two anti-oxidants designated MP1002 and MP1001 were used in the tests:
Male Sprague Dawley rats (210-220 g weight) were kept on a standard laboratory diet supplemented with “Nossan Pellets” (both the animals and the pellets are available from Nossan Company, Milan, Italy) and were housed for three weeks (relative humidity 50%±10%, temperature 22° C.±1 and in a light/darkness cycle of 12 hours/12 hours, with first light at 7.30 a.m.) prior to the tests; food and water were available ad libitum.
Prior to treatment, the rats were anaesthetized by intraperitoneal injection of 380 mg/kg weight of chloral hydrate; a stainless steel guide cannula (size 25) was implanted unilaterally in the Substantia Nigra with stereotaxic guiding and was secured to the cranium with dental acrylic material.
The animals (20 per test group) were allowed a recovery period of seven days prior to treatment; during this period no change in motor activity or posture was observed. Microinfusions were performed by means of a 10 μl Hamilton syringe connected to an injection cannula by means of a Teflon tube. The compounds or the vehicle (0.8% NaCl) were injected at a total volume of 1 μl/minute.
Microinfusion of 50 μg of Paraquat into the Substantia Nigra (n=20 rats) led to an increase in motor activity with the animals performing jumps and moving in circles in a contralateral direction relative to the injection position, about 24 minutes later; all of the animals were dead 24±2.5 hours after infusion. A further twenty animals were infused with Paraquat and twenty with Paraquat plus vehicle; about ten of the animals for each group survived 20 hours after treatment and were used to determine the development of lipid peroxidation in the Substantia Nigra.

[2] = test system: lipid peroxidation in the Substantia Nigra; assay type: in vivo; details: for Lipid Peroxidation: Substantia Nigra, 24 hours
Procedure: Microinfusion of 50 μg of Paraquat into the Substantia Nigra (n=20 rats) led to an increase in motor activity with the animals performing jumps and moving in circles in a contralateral direction relative to the injection position, about 24 minutes later; all of the animals were dead 24±2.5 hours after infusion. […]
[…]. Enzymol. 52, 302-310, 1978.

[3] = test system: myocardial ischaemia and reperfusion (I/R) in the rat; experiment: Myocardial lesion due to ischaemia and reperfusion (LAD occlusion): size of the infarct; assay type: in vivo; details: 10 mg/kg bolus 5 minutes prior to reperfusion, then 2 mg/kg/h; LAD occlusion 25 minutes, reperfusion 2 hours; p<0.01 (FIG. 1)
Procedure: The in vivo model of myocardial lesion due to ischaemia and reperfusion was selected as the most suitable for checking the efficacy of the compounds MP1002 and MP1001 according to the invention.
Male Sprague Dawley rats (220-230 g) were kept on a standard laboratory diet supplemented with “Nossan Pellets” (Nossan Company, Milan, Italy) and were housed for three weeks prior to the tests (relative humidity 50%±10, temperature 22° C.±1 and light/darkness cycle of 12/12 hours with first light at 7.30 a.m.); food and water were available ad libitum.
The rats (twenty per group) were anaesthetized by intraperitoneal injection of chloral hydrate (380 mg/kg) and were then tracheotomized, intubated and ventilated with ambient air by a suitable ventilator; body temperature was kept at 38° C.±1 and the right carotid artery was cannulated and connected to a pressure transducer to monitor the mean arterial blood pressure (MAP). […]
The coronary artery was occluded by tightening the occluder, a procedure which is correlated with the electrocardiographic and haemodynamic changes (drop in MAP) which are typical of myocardial ischaemia. […] The heart rate (HR) and MAP were monitored continuously. […]

[4] = test system: mean arterial blood pressure (MAP) and heart rate (HR) in the rat; experiment: Mean arterial blood pressure (MAP) and heart rate (HR) in myocardial ischaemia and reperfusion; assay type: in vivo; details: for HR: in beats/min (unit assumed); for MAP: in mmHg (unit assumed)
Procedure: The rats (twenty per group) were anaesthetized by intraperitoneal injection of chloral hydrate (380 mg/kg) and were then tracheotomized, intubated and ventilated with ambient air by a suitable ventilator; body temperature was kept at 38° C.±1 and the right carotid artery was cannulated and connected to a pressure transducer to monitor the mean arterial blood pressure (MAP).
The coronary artery was occluded by tightening the occluder, a procedure which is correlated with the electrocardiographic and haemodynamic changes (drop in MAP) which are typical of myocardial ischaemia. After 25 minutes of myocardial ischaemia, the occluder was reopened, permitting reperfusion for 2 hours. The heart rate (HR) and MAP were monitored continuously.
The following test groups were considered: a) LAD occlusion (25 minutes) and reperfusion (2 hours) plus administration of the vehicle (saline solution, 3 ml/kg-v-bolus plus 1.8 ml/kg/h) starting 5 minutes after reperfusion and maintained during the reperfusion period; b) LAD occlusion and reperfusion plus administration of MP1002 or MP1001 (10 mg/kg injection in bolus) 5 minutes prior to reperfusion, followed by infusion of 2 mg/kg/h during the reperfusion period; c) sham operation (no LAD occlusion) and infusion of the vehicle; d) sham operation and infusion of MP1002 or MP1001 as described above.
The base haemodynamic results were similar in the various groups considered.

[5] = 50 μg paraquat by microinfusion, 5 minutes later 100 mg/kg b.w. intraperitoneal
[6] = Paraquat (50 μg) microinfused simultaneously with 1 μg compound
[7] = pretreated intraperitoneally 120 mg/kg b.w., after 5 minutes paraquat (50 μg) by microinfusion
[8] = simultaneous microinfusion into Substantia Nigra of paraquat (50 μg) with 1 μg compound
[9] = simultaneously 50 μg paraquat by microinfusion and 120 mg/kg b.w. intraperitoneal
[10] = Sham operation, Occlusion 15 min
[11] = Sham operation, Occlusion 25 min
[12] = Sham operation, Reperfusion 15 min
[13] = Sham operation, Reperfusion 25 min

CC1(C)CC(OC(=O)CCCCCCCCC(=O)OC2CC(C)(C)N(O)C(C)(C)C2)CC(C)(C)N1O [MP1002, bis(1-oxyl-2,2,6,6-tetramethyl-4-piperidinyl)decandioate] was tested, and the “Duration (seizures)” value [1, 5] was “No seizures and epileptic discharges”, the “Latency (seizures)” value [1, 5] was “No seizures and epileptic discharges” and the Mortality [1, 5] was 0%. The deaths of rats ([1]; 120 mg/kg intraperitoneally 5 minutes prior to, simultaneously with, or 5 minutes after 50 μg Paraquat) was “none of the rats died”, the “signs of alterations during continuous monitoring” value [1, 6] was “no signs of alterations were observed” and the “survival for a further 24 hours” value [1, 6] was “all of the animals survived”. The “capacity to cross the blood-brain barrier (BBB)” value ([1]; concluded from protection after intraperitoneal administration) was “cross the blood-brain barrier”, the “protection against the behavioural and neuropathological effects induced by Paraquat” value ([1]; intracerebral and peripheral administration) was “protected completely” and the “Duration (seizures)” value [1, 7] was “No seizures and epileptic discharges”. The “Latency (seizures)” value [1, 7] was “No seizures and epileptic discharges”, the Mortality [1, 7] was 0% and the “Duration (seizures)” value [1, 8] was “No seizures and epileptic discharges”. The “Latency (seizures)” value [1, 8] was “No seizures and epileptic discharges”, the Mortality [1, 8] was 0% and the “Duration (seizures)” value [1, 9] was “No seizures and epileptic discharges”. The “Latency (seizures)” value [1, 9] was “No seizures and epileptic discharges”, the Mortality [1, 9] was 0% and the “Lipid Peroxidation” value [2, 5] was 4.1 ± 0.39 nmol MDA × h^−1 × mg prot^−1. For the same molecule, the “Lipid Peroxidation” value ([2]; pretreated intraperitoneally 120 mg/kg b.w., after 5 minutes paraquat (50 μg)) was 5.2 ± 0.75 nmol MDA × h^−1 × mg prot^−1, the “Lipid Peroxidation” value ([2]; simultaneous microinfusion of paraquat (50 μg) with 1 μg compound) was 4.3 ± 0.63 nmol MDA × h^−1 × mg prot^−1 and the “Lipid Peroxidation” value [2, 9] was 4.9 ± 0.86 nmol MDA × h^−1 × mg prot^−1. For the same molecule, the “lipid peroxidation in the Substantia Nigra” value ([2]; treatment before, with, or after infusion with Paraquat, p<0.01) was “markedly and significantly (p<0.01) reduced lipid peroxidation”, the “reduction in the size of the infarct compared with the control” value [3] was 80% and the HR ([4]; I/R, Baseline) was 438 ± 30. For the same molecule, the MAP ([4]; I/R, Baseline) was 127 ± 14, the HR ([4]; I/R, Occlusion 15 min) was 437 ± 32 and the MAP ([4]; I/R, Occlusion 15 min) was 121 ± 14. For the same molecule, the HR ([4]; I/R, Occlusion 25 min) was 431 ± 24, the MAP ([4]; I/R, Occlusion 25 min) was 114 ± 10 and the HR ([4]; I/R, Reperfusion 15 min) was 427 ± 29. The MAP ([4]; I/R, Reperfusion 15 min) was 102 ± 11, the HR ([4]; I/R, Reperfusion 25 min) was 429 ± 25 and the MAP ([4]; I/R, Reperfusion 25 min) was 97 ± 9. It also gave an HR ([4]; Sham operation, Baseline) of 421 ± 26, an MAP ([4]; Sham operation, Baseline) of 125 ± 15 and an HR [4, 10] of 420 ± 33. For the same molecule, the MAP [4, 10] was 123 ± 16, the HR [4, 11] was 422 ± 25 and the MAP [4, 11] was 120 ± 11. It also gave an HR [4, 12] of 428 ± 26, an MAP [4, 12] of 110 ± 12 and an HR [4, 13] of 426 ± 32. For the same molecule, the MAP [4, 13] was 105 ± 9, the “mean MAP and HR values versus the I/R group treated with the vehicle alone” value ([4]; rats subjected to I/R) was “not significantly different” and the “haemodynamic effects of infusion” value ([4]; sham operations (no LAD occlusion)) was “no substantial haemodynamic effects”.
